The nature of assay [1]: Equilibrium dissociation constant for [3H]DPCPX binding to Adenosine A1 receptor from DDT1 MF2 cell membranes.
Assay [2] in a line: Inhibitory concentration against [3H]DPCPX binding to Adenosine A1 receptor from DDT1 MF2 cells.
The nature of assay [3]: Equilibrium dissociation constant for [3H]DPCPX binding to Adenosine A1 receptor from DDT1 MF2 cell membranes. The source holds these as a separate data set.

pIC50, pKd: −log10 of the molar value.

In turn, `CCCn1c(=O)c2[nH]c(C3CC4CCC3C4)nc2n(CCCCC(=O)c2ccc(S(=O)(=O)F)cc2)c1=O` (stereo not given) [4-[5-(8-Bicyclo[2.2.1]hept-2-yl-2,6-dioxo-1-propyl-1,2,6,7-tetrahydro-purin-3-yl)-pentanoyl]-benzenesulfonyl fluoride] gave a pKd in assay [1] of 9.28. The compound also showed a pIC50 in assay [2] of 8.41.

For the compound `CCCn1c(=O)c2[nH]c(C3CCCCC3)nc2n(CCCCC(=O)c2ccc(S(=O)(=O)F)cc2)c1=O` [4-[5-(8-Cyclohexyl-2,6-dioxo-1-propyl-1,2,6,7-tetrahydro-purin-3-yl)-pentanoyl]-benzenesulfonyl fluoride], in assay [2], the pIC50 is 7.77.

In turn, `CCCn1c(=O)c2[nH]c(C3CCCC3)nc2n(CCCCC(=O)c2ccc(S(=O)(=O)F)cc2)c1=O` [4-[5-(8-Cyclopentyl-2,6-dioxo-1-propyl-1,2,6,7-tetrahydro-purin-3-yl)-pentanoyl]-benzenesulfonyl fluoride] showed a pKd in assay [1] of 9.28. Further, the pIC50 in assay [3] was 8.06.
